PubChem BioAssay (NCI)
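Values below derive from 48-hour exposures of cells grown in 96-well plates, with endpoints linearly interpolated between the two concentrations bracketing the appropriate inhibition level. The concentration for full growth arrest is given as TGI.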

Assays:
Experiment in all cases: NCI-60 cell line screen, 48 h
HS 578T breast = test system: HS 578T breast
HT29 colon = test system: HT29 colon
CAKI-1 renal = test system: CAKI-1 renal
TK-10 renal = test system: TK-10 renal
T-47D breast = test system: T-47D breast
RPMI-8226 leukemia = test system: RPMI-8226 leukemia
COLO 205 colon = test system: COLO 205 colon
EKVX NSCLC = test system: EKVX NSCLC
OVCAR-8 ovarian = test system: OVCAR-8 ovarian
786-0 renal = test system: 786-0 renal
MCF7 breast = test system: MCF7 breast
CCRF-CEM leukemia = test system: CCRF-CEM leukemia
SK-MEL-28 melanoma = test system: SK-MEL-28 melanoma
UACC-62 melanoma = test system: UACC-62 melanoma
NCI-H23 lung = test system: NCI-H23 lung
HCT-116 colon = test system: HCT-116 colon
U251 CNS = test system: U251 CNS
KM12 colon = test system: KM12 colon
RXF 393 renal = test system: RXF 393 renal
OVCAR-3 ovarian = test system: OVCAR-3 ovarian
HCT-15 colon = test system: HCT-15 colon
SR leukemia = test system: SR leukemia
MALME-3M melanoma = test system: MALME-3M melanoma
LOX IMVI melanoma = test system: LOX IMVI melanoma
HL-60(TB) leukemia = test system: HL-60(TB) leukemia
OVCAR-5 ovarian = test system: OVCAR-5 ovarian
SK-OV-3 ovarian = test system: SK-OV-3 ovarian
NCI-H522 lung = test system: NCI-H522 lung
SF-295 CNS = test system: SF-295 CNS
MOLT-4 leukemia = test system: MOLT-4 leukemia
A498 renal = test system: A498 renal
PC-3 prostate = test system: PC-3 prostate
SNB-75 CNS = test system: SNB-75 CNS
BT-549 breast = test system: BT-549 breast
HOP-92 NSCLC = test system: HOP-92 NSCLC
NCI-H226 lung = test system: NCI-H226 lung
M14 melanoma = test system: M14 melanoma
SK-MEL-5 melanoma = test system: SK-MEL-5 melanoma
SW-620 colon = test system: SW-620 colon
MDA-MB-435 = test system: MDA-MB-435
SK-MEL-2 melanoma = test system: SK-MEL-2 melanoma
MDA-MB-231 breast = test system: MDA-MB-231 breast
A549 NSCLC = test system: A549 NSCLC
UO-31 renal = test system: UO-31 renal
IGROV1 ovarian = test system: IGROV1 ovarian
NCI/ADR-RES ovarian = test system: NCI/ADR-RES ovarian
UACC-257 melanoma = test system: UACC-257 melanoma
K-562 leukemia = test system: K-562 leukemia
MDA-N = test system: MDA-N
ACHN renal = test system: ACHN renal
SNB-19 CNS = test system: SNB-19 CNS
HOP-62 NSCLC = test system: HOP-62 NSCLC
OVCAR-4 ovarian = test system: OVCAR-4 ovarian
DU-145 prostate = test system: DU-145 prostate
SN12C renal = test system: SN12C renal
SF-268 CNS = test system: SF-268 CNS
NCI-H460 lung = test system: NCI-H460 lung
SF-539 CNS = test system: SF-539 CNS
HCC-2998 colon = test system: HCC-2998 colon

Cc1ccc(SCN2CCCCC2)cc1 (tested in a mixture with another compound)
TGI (HS 578T breast): 37.1 µM | TGI (HT29 colon): 31.5 µM | TGI (CAKI-1 renal): 26.3 µM | TGI (TK-10 renal): 45.3 µM | TGI (T-47D breast): > 100 µM | TGI (RPMI-8226 leukemia): 29.5 µM | TGI (COLO 205 colon): 16 µM | TGI (EKVX NSCLC): 39.2 µM | TGI (OVCAR-8 ovarian): > 100 µM | TGI (786-0 renal): 29.9 µM | TGI (MCF7 breast): 59.4 µM | TGI (CCRF-CEM leukemia): 6.59 µM | TGI (SK-MEL-28 melanoma): 29.7 µM | TGI (UACC-62 melanoma): 27.7 µM | TGI (NCI-H23 lung): 22.9 µM | TGI (HCT-116 colon): 23.4 µM | TGI (U251 CNS): 23.2 µM | TGI (KM12 colon): 26.5 µM | TGI (RXF 393 renal): 22.3 µM | TGI (OVCAR-3 ovarian): 30 µM | TGI (HCT-15 colon): 32 µM | TGI (SR leukemia): 25.6 µM | TGI (MALME-3M melanoma): 31.3 µM | TGI (LOX IMVI melanoma): 14.3 µM | TGI (HL-60(TB) leukemia): 4.98 µM | TGI (OVCAR-5 ovarian): 25.8 µM | TGI (SK-OV-3 ovarian): 29.7 µM | TGI (NCI-H522 lung): 8.86 µM | TGI (SF-295 CNS): 33.1 µM | TGI (MOLT-4 leukemia): 16.2 µM | TGI (A498 renal): 14.7 µM | TGI (PC-3 prostate): 30.2 µM | TGI (SNB-75 CNS): 22.5 µM | TGI (BT-549 breast): 15 µM | TGI (HOP-92 NSCLC): 31 µM | TGI (NCI-H226 lung): 36.7 µM | TGI (M14 melanoma): 37.3 µM | TGI (SK-MEL-5 melanoma): 12.5 µM | TGI (SW-620 colon): 56.5 µM | TGI (MDA-MB-435): 25.6 µM | TGI (SK-MEL-2 melanoma): 31.1 µM | TGI (MDA-MB-231 breast): 27.7 µM | TGI (A549 NSCLC): 72.8 µM | TGI (UO-31 renal): 30.2 µM | TGI (IGROV1 ovarian): 10.9 µM | TGI (NCI/ADR-RES ovarian): 57.5 µM | TGI (UACC-257 melanoma): 30.6 µM | TGI (K-562 leukemia): 46.3 µM | TGI (MDA-N): 22.7 µM | TGI (ACHN renal): 28.7 µM | TGI (SNB-19 CNS): 49.9 µM | TGI (HOP-62 NSCLC): 37.7 µM | TGI (OVCAR-4 ovarian): 43.8 µM | TGI (DU-145 prostate): 28.1 µM | TGI (SN12C renal): 31.4 µM | TGI (SF-268 CNS): 20.6 µM

NC(=O)NOCC1NC(=O)NC1=O (stereo not given)
TGI (HS 578T breast): > 100 µM | TGI (HT29 colon): > 100 µM | TGI (CAKI-1 renal): > 100 µM | TGI (TK-10 renal): > 100 µM | TGI (T-47D breast): > 100 µM | TGI (NCI-H460 lung): > 100 µM | TGI (RPMI-8226 leukemia): > 100 µM | TGI (COLO 205 colon): > 100 µM | TGI (EKVX NSCLC): > 100 µM | TGI (OVCAR-8 ovarian): > 100 µM | TGI (786-0 renal): > 100 µM | TGI (MCF7 breast): > 100 µM | TGI (CCRF-CEM leukemia): > 100 µM | TGI (SK-MEL-28 melanoma): > 100 µM | TGI (UACC-62 melanoma): > 100 µM | TGI (NCI-H23 lung): > 100 µM | TGI (HCT-116 colon): > 100 µM | TGI (U251 CNS): > 100 µM | TGI (KM12 colon): > 100 µM | TGI (RXF 393 renal): > 100 µM | TGI (OVCAR-3 ovarian): > 100 µM | TGI (HCT-15 colon): > 100 µM | TGI (SR leukemia): > 100 µM | TGI (MALME-3M melanoma): > 100 µM | TGI (LOX IMVI melanoma): > 100 µM | TGI (HL-60(TB) leukemia): > 100 µM | TGI (OVCAR-5 ovarian): > 100 µM | TGI (SK-OV-3 ovarian): > 100 µM | TGI (NCI-H522 lung): > 100 µM | TGI (SF-295 CNS): > 100 µM | TGI (MOLT-4 leukemia): > 100 µM | TGI (A498 renal): > 100 µM | TGI (PC-3 prostate): > 100 µM | TGI (SNB-75 CNS): > 100 µM | TGI (BT-549 breast): > 100 µM | TGI (HOP-92 NSCLC): > 100 µM | TGI (NCI-H226 lung): > 100 µM | TGI (M14 melanoma): > 100 µM | TGI (SK-MEL-5 melanoma): > 100 µM | TGI (SW-620 colon): > 100 µM | TGI (MDA-MB-435): > 100 µM | TGI (SK-MEL-2 melanoma): > 100 µM | TGI (MDA-MB-231 breast): > 100 µM | TGI (A549 NSCLC): > 100 µM | TGI (UO-31 renal): > 100 µM | TGI (IGROV1 ovarian): > 100 µM | TGI (NCI/ADR-RES ovarian): > 100 µM | TGI (UACC-257 melanoma): > 100 µM | TGI (K-562 leukemia): > 100 µM | TGI (MDA-N): > 100 µM | TGI (SF-539 CNS): > 100 µM | TGI (ACHN renal): > 100 µM | TGI (SNB-19 CNS): > 100 µM | TGI (HOP-62 NSCLC): > 100 µM | TGI (OVCAR-4 ovarian): > 100 µM | TGI (DU-145 prostate): > 100 µM | TGI (SN12C renal): > 100 µM | TGI (SF-268 CNS): > 100 µM

CN(C)CCCN1c2ccc3ccccc3c2Sc2cccc(Cl)c21
TGI (HS 578T breast): 21.7 µM | TGI (HT29 colon): 4.56 µM | TGI (CAKI-1 renal): 16.6 µM | TGI (TK-10 renal): 5.67 µM | TGI (T-47D breast): 7.17 µM | TGI (NCI-H460 lung): 3.25 µM | TGI (RPMI-8226 leukemia): 3.85 µM | TGI (COLO 205 colon): 3.51 µM | TGI (EKVX NSCLC): 13.5 µM | TGI (OVCAR-8 ovarian): 18 µM | TGI (786-0 renal): 8.84 µM | TGI (CCRF-CEM leukemia): 3.52 µM | TGI (SK-MEL-28 melanoma): 4.3 µM | TGI (UACC-62 melanoma): 4.82 µM | TGI (NCI-H23 lung): 35.4 µM | TGI (HCT-116 colon): 14 µM | TGI (U251 CNS): 4.72 µM | TGI (KM12 colon): 4.28 µM | TGI (RXF 393 renal): 10.4 µM | TGI (HCC-2998 colon): 2.96 µM | TGI (OVCAR-3 ovarian): 10.6 µM | TGI (HCT-15 colon): 22.7 µM | TGI (MALME-3M melanoma): 23 µM | TGI (HL-60(TB) leukemia): 3.99 µM | TGI (OVCAR-5 ovarian): 17.7 µM | TGI (SK-OV-3 ovarian): 26.4 µM | TGI (NCI-H522 lung): 10.5 µM | TGI (SF-295 CNS): 12.4 µM | TGI (MOLT-4 leukemia): 4.75 µM | TGI (A498 renal): 25.8 µM | TGI (PC-3 prostate): 11.8 µM | TGI (SNB-75 CNS): 12 µM | TGI (BT-549 breast): 42.7 µM | TGI (HOP-92 NSCLC): 9.1 µM | TGI (NCI-H226 lung): 18.7 µM | TGI (M14 melanoma): 3.58 µM | TGI (SK-MEL-5 melanoma): 9.59 µM | TGI (SW-620 colon): 4.33 µM | TGI (MDA-MB-435): 3.88 µM | TGI (SK-MEL-2 melanoma): 3.75 µM | TGI (MDA-MB-231 breast): 8.07 µM | TGI (A549 NSCLC): 19 µM | TGI (UO-31 renal): 12 µM | TGI (IGROV1 ovarian): 5.85 µM | TGI (NCI/ADR-RES ovarian): 23.4 µM | TGI (UACC-257 melanoma): 3.1 µM | TGI (K-562 leukemia): 3.77 µM | TGI (MDA-N): 5.51 µM | TGI (SF-539 CNS): 20.7 µM | TGI (ACHN renal): 12.6 µM | TGI (SNB-19 CNS): 22.7 µM | TGI (HOP-62 NSCLC): 9.32 µM | TGI (OVCAR-4 ovarian): 13.8 µM | TGI (DU-145 prostate): 14.8 µM | TGI (SN12C renal): 20.3 µM | TGI (SF-268 CNS): 32.5 µM
